As a reminder, the IC50 is the concentration that gives 50% inhibition.

The target in the first test is T1, full-length beta-Catenin (Uniprot ID P35222) (Homo sapiens, UniProt P35222).
T1 construct: 10 nM full-length beta-Catenin (Uniprot ID P35222)
T1 sequence (P35222 1-781): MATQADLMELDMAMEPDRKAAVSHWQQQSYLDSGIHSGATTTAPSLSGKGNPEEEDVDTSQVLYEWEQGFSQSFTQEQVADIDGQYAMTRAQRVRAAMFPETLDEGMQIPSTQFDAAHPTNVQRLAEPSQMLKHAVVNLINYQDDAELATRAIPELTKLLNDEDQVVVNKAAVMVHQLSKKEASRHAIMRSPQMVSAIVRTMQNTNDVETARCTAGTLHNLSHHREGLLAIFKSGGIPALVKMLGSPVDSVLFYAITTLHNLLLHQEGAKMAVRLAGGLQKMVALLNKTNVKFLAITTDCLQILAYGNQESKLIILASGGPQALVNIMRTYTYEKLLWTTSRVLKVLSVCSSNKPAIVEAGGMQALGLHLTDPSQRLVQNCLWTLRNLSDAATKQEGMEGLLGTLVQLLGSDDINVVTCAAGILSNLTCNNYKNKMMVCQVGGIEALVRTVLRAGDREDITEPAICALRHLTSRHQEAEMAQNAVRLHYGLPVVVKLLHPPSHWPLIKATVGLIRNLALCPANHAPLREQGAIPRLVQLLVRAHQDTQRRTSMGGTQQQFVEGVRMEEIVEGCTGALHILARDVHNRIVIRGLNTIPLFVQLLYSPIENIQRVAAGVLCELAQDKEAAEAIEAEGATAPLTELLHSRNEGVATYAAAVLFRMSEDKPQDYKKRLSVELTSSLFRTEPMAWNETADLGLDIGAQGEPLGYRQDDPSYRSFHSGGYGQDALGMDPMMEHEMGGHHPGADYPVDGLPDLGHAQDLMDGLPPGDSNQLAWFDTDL
As to the kind of experiment: Fluorescence polarization IC50 (beta-catenin / 5FAM-TCF4 10-53 competition). Particulars: beta-Catenin FP IC50 (nM), fluorescence polarization. Format: binding. For orientation: In fluorescence polarisation assays a small probe gives low polarisation when free and higher when bound to something large.
Regarding `CC(=O)N1CCC[C@]12CC=CCCCC1(CCCC=CCCCOC(=O)N3CC[C@@](C(=O)N[C@@H](Cc4ccsc4)C(=O)N[C@@H](Cc4csc5ccccc45)C(=O)N[C@@H](CCC(N)=O)C(N)=O)(C3)NC(=O)[C@H](CC(C)C)NC(=O)[C@H](Cc3ccccc3)NC(=O)[C@H](C)NC(=O)[C@H](C)NC(=O)[C@H](CC(=O)OCCSSc3ccccc3)NC(=O)[C@H](CC(=O)O)NC1=O)NC(=O)[C@H](CC(C)(C)C)NC(=O)[C@H](CC(=O)O)NC2=O` (stereo partly drawn) [I-1956, Ac-PL3-Asp-Npg-B5-Asp-[EtSSPh]AspE-Ala-Ala-Phe-Leu-PyrS2-3Thi-BztA-Gln-NH2], the IC50 amounted to 849 nM.

Still in this test, the particulars now being: fluorescence polarization; read-out: beta-Catenin FP IC50.
`CC(=O)N1CCC[C@]12CC=CCCCC1(CCCC=CCCCOC(=O)N3CC[C@@](C(=O)N[C@@H](Cc4ccsc4)C(=O)N[C@@H](Cc4csc5ccccc45)C(=O)N[C@@H](CCC(N)=O)C(N)=O)(C3)NC(=O)[C@H](CC(C)C)NC(=O)[C@H](Cc3ccccc3)NC(=O)[C@H](C)NC(=O)[C@H](C)NC(=O)[C@H](CC(=O)S)NC(=O)[C@H](CC(=O)O)NC1=O)NC(=O)[C@H](CC(C)(C)C)NC(=O)[C@H](CC(=O)O)NC2=O` (stereo partly drawn) [I-1947, Ac-PL3-Asp-Npg-B5-Asp-AspSH-Ala-Ala-Phe-Leu-PyrS2-3Thi-BztA-Gln-NH2]: the IC50 came to 253 nM. As for `CC(=O)N1CCC[C@]12CC=CCCCC1(CCCC=CCCCOC(=O)N3CC[C@@](C(=O)N[C@@H](Cc4ccsc4)C(=O)N[C@@H](Cc4csc5ccccc45)C(=O)N[C@@H](CCC(N)=O)C(N)=O)(C3)NC(=O)[C@H](CC(C)C)NC(=O)[C@H](Cc3ccccc3)NC(=O)[C@H](C)NC(=O)[C@H](C)NC(=O)[C@H](CCC(=O)S)NC(=O)[C@H](CC(=O)O)NC1=O)NC(=O)[C@H](CC(C)(C)C)NC(=O)[C@H](CC(=O)O)NC2=O` (stereo partly drawn) [I-1948, Ac-PL3-Asp-Npg-B5-Asp-GluSH-Ala-Ala-Phe-Leu-PyrS2-3Thi-BztA-Gln-NH2], the IC50 was 1330 nM. Regarding `CC(=O)N1CCC[C@]12CC=CCCCC1(CCCC=CCCCOC(=O)N3CC[C@@](C(=O)N[C@@H](Cc4ccsc4)C(=O)N[C@@H](Cc4csc5ccccc45)C(=O)N[C@@H](CCC(N)=O)C(N)=O)(C3)NC(=O)[C@H](CC(C)C)NC(=O)[C@H](Cc3ccccc3)NC(=O)[C@H](C)NC(=O)[C@H](C)NC(=O)[C@H](CC(=O)O)NC(=O)[C@H](CC(=O)OCCSSc3ccccn3)NC1=O)NC(=O)[C@H](CC(C)(C)C)NC(=O)[C@H](CC(=O)O)NC2=O` (stereo partly drawn) [I-1950, Ac-PL3-Asp-Npg-B5-[EtSSpy]AspE-Asp-Ala-Ala-Phe-Leu-PyrS2-3Thi-BztA-Gln-NH2], the 50% inhibitory concentration (IC50) came to 234 nM.

On to `CCCCCCSSCCOC(=O)C[C@@H]1NC(=O)[C@]2(CC=CCCCC3(CCCC=CCCCOC(=O)N4CC[C@@](C(=O)N[C@@H](Cc5ccsc5)C(=O)N[C@@H](Cc5csc6ccccc56)C(=O)N[C@@H](CCC(N)=O)C(N)=O)(C4)NC(=O)[C@H](CC(C)C)NC(=O)[C@H](Cc4ccccc4)NC(=O)[C@H](C)NC(=O)[C@H](C)NC(=O)[C@H](CC(=O)O)NC(=O)[C@H](CC(=O)O)NC3=O)NC(=O)[C@H](CC(C)(C)C)NC1=O)CCCN2C(C)=O` (stereo partly drawn) [I-1960, Ac-PL3-[EtSSHex]AspE-Npg-B5-Asp-Asp-Ala-Ala-Phe-Leu-PyrS2-3Thi-BztA-Gln-NH2], for which the IC50 is 544 nM. As for `CCSSCCOC(=O)C[C@@H]1NC(=O)C2(CCCC=CCCCOC(=O)N3CC[C@@](C(=O)N[C@@H](Cc4ccsc4)C(=O)N[C@@H](Cc4csc5ccccc45)C(=O)N[C@@H](CCC(N)=O)C(N)=O)(C3)NC(=O)[C@H](CC(C)C)NC(=O)[C@H](Cc3ccccc3)NC(=O)[C@H](C)NC(=O)[C@H](C)NC(=O)[C@H](CC(=O)O)NC1=O)CCCC=CC[C@]1(CCCN1C(C)=O)C(=O)N[C@@H](CC(=O)O)C(=O)N[C@@H](CC(C)(C)C)C(=O)N2` (stereo partly drawn) [I-1964, Ac-PL3-Asp-Npg-B5-[EtSSEt]AspE-Asp-Ala-Ala-Phe-Leu-PyrS2-3Thi-BztA-Gln-NH2], the IC50 was 738 nM. Regarding `CCSSCCOC(=O)CC[C@@H]1NC(=O)[C@H](CC(=O)O)NC(=O)C2(CCCC=CCCCOC(=O)N3CC[C@@](C(=O)N[C@@H](Cc4ccsc4)C(=O)N[C@@H](Cc4csc5ccccc45)C(=O)N[C@@H](CCC(N)=O)C(N)=O)(C3)NC(=O)[C@H](CC(C)C)NC(=O)[C@H](Cc3ccccc3)NC(=O)[C@H](C)NC(=O)[C@H](C)NC1=O)CCCC=CC[C@]1(CCCN1C(C)=O)C(=O)N[C@@H](CC(=O)O)C(=O)N[C@@H](CC(C)(C)C)C(=O)N2` (stereo partly drawn) [I-1966, Ac-PL3-Asp-Npg-B5-Asp-[EtSSEt]GluE-Ala-Ala-Phe-Leu-PyrS2-3Thi-BztA-Gln-NH2], the 50% inhibitory concentration (IC50) turned out to be 566 nM. On the same count and under the same terms, the figure for `CC(=O)N1CCC[C@]12CC=CCCCC1(CCCC=CCCCOC(=O)N3CC[C@@](C(=O)N[C@@H](Cc4ccsc4)C(=O)N[C@@H](Cc4csc5ccccc45)C(=O)N[C@@H](CCC(N)=O)C(N)=O)(C3)NC(=O)[C@H](CC(C)C)NC(=O)[C@H](Cc3ccccc3)NC(=O)[C@H](C)NC(=O)[C@H](C)NC(=O)[C@H](CN3CCC[C@@H](C(=O)O)C3)NC(=O)[C@H](CC(=O)O)NC1=O)NC(=O)[C@H](CC(C)(C)C)NC(=O)[C@H](CC(=O)O)NC2=O` (stereo partly drawn) [I-1967, Ac-PL3-Asp-Npg-B5-Asp-R3COOPipA-Ala-Ala-Phe-Leu-PyrS2-3Thi-BztA-Gln-NH2] is 14 nM; for `CC(=O)N1CCC[C@]12CC=CCCCC1(CCCC=CCCCOC(=O)N3CC[C@@](C(=O)N[C@@H](Cc4ccsc4)C(=O)N[C@@H](Cc4csc5ccccc45)C(=O)N[C@@H](CCC(N)=O)C(N)=O)(C3)NC(=O)[C@H](CC(C)C)NC(=O)[C@H](Cc3ccccc3)NC(=O)[C@H](C)NC(=O)[C@H](C)NC(=O)[C@H](CN3CCCC[C@H]3C(=O)O)NC(=O)[C@H](CC(=O)O)NC1=O)NC(=O)[C@H](CC(C)(C)C)NC(=O)[C@H](CC(=O)O)NC2=O` (stereo partly drawn) [I-1968, Ac-PL3-Asp-Npg-B5-Asp-S2COOPipA-Ala-Ala-Phe-Leu-PyrS2-3Thi-BztA-Gln-NH2] it is 29 nM; for `CC(=O)N1CCC[C@]12CC=CCCCC1(CCCC=CCCCOC(=O)N3CC[C@@](C(=O)N[C@@H](Cc4ccsc4)C(=O)N[C@@H](Cc4csc5ccccc45)C(=O)N[C@@H](CCC(N)=O)C(N)=O)(C3)NC(=O)[C@H](CC(C)C)NC(=O)[C@H](Cc3ccccc3)NC(=O)[C@H](C)NC(=O)[C@H](C)NC(=O)[C@H](CN3CCCC[C@@H]3C(=O)O)NC(=O)[C@H](CC(=O)O)NC1=O)NC(=O)[C@H](CC(C)(C)C)NC(=O)[C@H](CC(=O)O)NC2=O` (stereo partly drawn) [I-1969, Ac-PL3-Asp-Npg-B5-Asp-R2COOPipA-Ala-Ala-Phe-Leu-PyrS2-3Thi-BztA-Gln-NH2] it is 49 nM. On the same count and under the same terms, the figure for `CC(=O)N1CCC[C@]12CC=CCCC1(CCC=CCCOC(=O)N3CC[C@@](C(=O)N[C@@H](Cc4ccsc4)C(=O)N[C@@H](Cc4csc5ccccc45)C(=O)N[C@@H](CCC(N)=O)C(N)=O)(C3)NC(=O)[C@H](CC(C)C)NC(=O)[C@H](Cc3ccccc3)NC(=O)[C@H](C)NC(=O)[C@H](C)NC(=O)[C@H](CC(=O)O)NC(=O)[C@H](CC(=O)O)NC1=O)NC(=O)[C@H](CC(C)(C)C)NC(=O)[C@H](CC(=O)O)NC2=O` (stereo partly drawn) [I-1970, Ac-PL3-Asp-Npg-B4-Asp-Asp-Ala-Ala-Phe-Leu-PyrS1-3Thi-BztA-Gln-NH2] is 441 nM; for `CC(=O)N1CCC[C@]12CC=CCCC1(CCC=CCCCOC(=O)N3CC[C@@](C(=O)N[C@@H](Cc4ccsc4)C(=O)N[C@@H](Cc4csc5ccccc45)C(=O)N[C@@H](CCC(N)=O)C(N)=O)(C3)NC(=O)[C@H](CC(C)C)NC(=O)[C@H](Cc3ccccc3)NC(=O)[C@H](C)NC(=O)[C@H](C)NC(=O)[C@H](CC(=O)O)NC(=O)[C@H](CC(=O)O)NC1=O)NC(=O)[C@H](CC(C)(C)C)NC(=O)[C@H](CC(=O)O)NC2=O` (stereo partly drawn) [I-1971, Ac-PL3-Asp-Npg-B4-Asp-Asp-Ala-Ala-Phe-Leu-PyrS2-3Thi-BztA-Gln-NH2] it is 475 nM.

The same test, now with this note: read-out: beta-Catenin FP IC50; fluorescence polarization.
For `CC(=O)N1CCC[C@]12CC=CCCCC1(CCCC=CCCCOC(=O)N3CC[C@@](C(=O)N[C@@H](Cc4ccsc4)C(=O)N[C@@H](Cc4csc5ccccc45)C(=O)N[C@@H](CCC(N)=O)C(N)=O)(C3)NC(=O)[C@H](CC(C)C)NC(=O)[C@H](Cc3ccccc3)NC(=O)[C@H](C)NC(=O)[C@H](C)NC(=O)[C@H](CC(=O)O)NC(=O)[C@H](CC(=O)OCCSSc3ccccc3)NC1=O)NC(=O)[C@H](CC(C)(C)C)NC(=O)[C@H](CC(=O)O)NC2=O` (stereo partly drawn) [I-1955, Ac-PL3-Asp-Npg-B5-[EtSSPh]AspE-Asp-Ala-Ala-Phe-Leu-PyrS2-3Thi-BztA-Gln-NH2], the concentration for half-maximal inhibition (IC50) amounted to 1200 nM. For the compound `CC(=O)N1CCC[C@]12CC=CCCCC1(CCCC=CCCCOC(=O)N3CC[C@@](C(=O)N[C@@H](Cc4ccsc4)C(=O)N[C@@H](Cc4csc5ccccc45)C(=O)N[C@@H](CCC(N)=O)C(N)=O)(C3)NC(=O)[C@H](CC(C)C)NC(=O)[C@H](Cc3ccccc3)NC(=O)[C@H](C)NC(=O)[C@H](C)NC(=O)[C@H](CCC(=O)OCCSSc3ccccc3)NC(=O)[C@H](CC(=O)O)NC1=O)NC(=O)[C@H](CC(C)(C)C)NC(=O)[C@H](CC(=O)O)NC2=O` (stereo partly drawn) [I-1957, Ac-PL3-Asp-Npg-B5-Asp-[EtSSPh]GluE-Ala-Ala-Phe-Leu-PyrS2-3Thi-BztA-Gln-NH2], the IC50 was determined as 567 nM.

The values above are taken from US20240116985A1, “STAPLED PEPTIDES AND METHODS THEREOF” (priority 2020, published 2024).
